{"source": "patent US11124479B2", "about": "“Oligopyrroles as antagonists of islet amyloid polypeptide oligomerization” (New York University, priority 2017, dated 2021)", "key": {"[1]": {"target": "T1, islet amyloid polypeptide (IAPP) (Homo sapiens, UniProt P10997)", "T1 construct": "IAPP is a 37 residue neuropancreatic hormone peptide; purchased Anaspec (Fremont, Calif.)", "T1 sequence (P10997 34-70 limits assumed)": "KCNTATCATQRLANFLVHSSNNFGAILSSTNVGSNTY", "experiment": "Transmission electron microscopy (TEM) of IAPP fibers", "conditions": "10 μM IAPP, equimolar ratio", "procedure": "[…] Aliquots of these samples were then applied to glow-discharged carbon-coated 300-mesh copper grids for 2 min and dried. Grids were negatively stained with uranyl acetate (2%, w/v) and dried. Micrographs of grids were examined on a Phillips CM12 Cryoelectron Microscope equipped with Gatan 4 k×2.7 k CCD camera at 120-kV accelerating voltage."}, "[2]": {"target": "T1, islet amyloid polypeptide (IAPP)", "experiment": "Circular dichroism (CD) spectroscopy of IAPP conformation", "conditions": "for IAPP conformation by CD: 15 μM IAPP, equimolar ratio", "procedure": "A freshly prepared stock solution of IAPP (500 μM in water) was diluted to 15 μM in phosphate buffer for CD measurements. The spectra of IAPP were recorded at 0.5 nm intervals from 190 to 260 nm with an averaging time of 10 sec. and an average of three repeats on an Aviv Stopped Flow CD Spectropolarimeter (Model 202SF). Spectra were recorded using the identical method as described above. ADH-101 was added to the solution of IAPP at an equimolar ratio. […]"}, "[3]": {"tested_on": "IAPP mediated cytotoxicity in Rat insulinoma cells (RIN-m)", "experiment": "Cell viability (CellTiter Blue), IAPP-mediated cytotoxicity", "type": "cell-based", "conditions": "6 μM IAPP, 48 h, IAPP alone ~68%", "procedure": "(§1) For cell toxicity assays, Rat insulinoma cells (RIN-m) were as they are considered to be a good model for pancreatic β-cells (see Huang, C.; Lin, C.; Haataja, L., Gurlo, T., Butler, A. E., Rizza, R. A., and Butler, P. C. Diabetes, 2007, 56, 2016-2027). Rat insulinoma RIN-m cells (ATCC, Manassas, Va.) were cultured in RPMI medium supplemented with 10% fetal bovine serum, 1% penicillin/streptomycin, […] sodium pyruvate, and […] β-mercaptoethanol (Life Technologies, Carlsbad, Calif.) at 37° C. and 5% CO2. Upon reaching ˜95% confluence, cells were washed with phosphate buffered saline (VWR, Radnor, Pa.), split using 0.25% Trypsin-EDTA (Life Technologies), and plated in clear 96-well plates (Corning, Glenview, Ill.) for cell viability assays.\n(§2) Cell viability was measured using the CellTiter Blue (CTB, Promega, Madison, Wis.) fluorescence-based assay. Cells were plated at a density of 20,000 cells per well in 96 well plates. After 48 h of incubation at 37° C. and 5% CO2, cells were washed with 100 μL of PBS. […] Fluorescence of the dye was measured on a FlexStation3 microplate reader (Molecular Devices, Sunnyvale, Calif.). […] Percent viability was calculated as per the following equation: % Viability=100*[(<S>−<P>)/(<N>−<P>)]\n(§3) Where <S>, <P>, and <N> are the average fluorescence intensities of the sample, positive control, and negative control, respectively."}, "RIN-m cells": {"tested_on": "RIN-m cells", "experiment": "Cell viability (CellTiter Blue), compound alone without IAPP", "type": "cell-based, Rat", "conditions": "concentrations used for cell viability assays, no IAPP", "procedure": "as §1, §2, §3"}, "Partition coefficient": {"experiment": "Partition coefficient", "type": "physicochemical"}, "[4]": {"experiment": "Self-aggregation by UV, centrifugation and DLS", "type": "physicochemical", "text": "ADH-101 contains hydrophobic and negatively charged groups and presents a possibility for self-aggregation. It has been shown that the small molecules with self-aggregation tendencies can inhibit amyloid formation in a non-specific manner. Therefore, UV, centrifugation, and DLS were used to explore the self-aggregation properties of ADH-101 (FIG. 12A)."}}, "data": [{"smiles": "CCOC(=O)c1cc(NC(=O)c2cc(NC(=O)c3cc([N+](=O)[O-])cn3CC(C)C)cn2CC(C)C)cn1CCC(=O)O", "note": "[ADH-101]", "values": [{"measurement": "fiber formation by TEM", "setting": "[1]; 12 hours", "result": "no formation of fibers"}, {"measurement": "fiber formation by TEM", "setting": "[1]; 24 h", "result": "formation of amorphous fibers"}, {"measurement": "IAPP conformation by CD", "setting": "[2]; phosphate buffer, after 8 hours", "result": "no β-sheet conformation was observed"}, {"measurement": "conformation induced in IAPP", "setting": "[2]; FIG. 3B", "result": "induces an α-helical conformation"}, {"measurement": "induced CD signal around 340 nm", "setting": "[2]; incubated with IAPP at equimolar ratio", "result": "positive induced CD signal"}, {"measurement": "IAPP conformation by CD", "setting": "[2]; lipid membrane (600 μM DOPG:DOPC 3:7), after 1 hour", "result": "stays in an α-helical state"}, {"measurement": "cell viability", "setting": "[3]; ratio 1:1 (IAPP:ADH-101)", "result": 100, "unit": "%"}, {"measurement": "cell viability", "setting": "[3]; ratio 1:2 (IAPP:ADH-101)", "result": 100, "unit": "%"}, {"measurement": "toxicity to the cells", "setting": "RIN-m cells", "result": "not toxic"}, {"measurement": "logP", "setting": "Partition coefficient", "result": 2.2}, {"measurement": "diameter of species by DLS", "setting": "[4]; 50 μM, 150 mM KCl, 50 mM NaPi, pH 7.4", "result": "less than 10 nm"}, {"measurement": "concentration up to which the compound did not self-assemble", "setting": "[4]; phosphate buffer, UV and centrifugation", "result": "> 40", "unit": "µM"}]}]}
